According to US11225465B2, “Albicidin derivatives, their use and synthesis” (TECHNISCHE UNIVERSITÄT BERLIN, priority 2017, dated 2022):
Values after ≈ are worked out from the molar mass of the structure shown. Where two headings read alike, the source gives them in different places.

Key:
E. coli DSM 1116 = test: Microdilution assay, MIC; format: cell-based; details: Escherichia coli, read-out: MIC E. coli DSM1116
Description: (§1) The tests were performed using the micro dilution method.
(§2) The determination of MIC values was performed according to the ninth edition of the Approved Standard M07-A9 (CLSI. Methods for Dilution Antimicrobial Susceptibility Tests for Bacteria That Grow Aerobically; Approved Standard—Ninth Edition. CLSI document M07-A9. Wayne, Pa.: Clinical and Laboratory Standards Institute; 2012.)
(§3) The test was carried out for four different bacterial strains (E. coli DSM 1116 [gram negative], B. subtilis DSM 10 [gram positive], M. luteus DSM 1790 [gram positive], S. typhimurium TA100 [gram negative]). 20 μL of cryo stock of each strain were inoculated in 20 mL of LB media (Lysogeny broth: 10 g/L peptone, 5 g/L yeast extract, 5 g/L NaCl) followed by incubation over night at 37° C., 200 rpm. The test inoculum was adjusted by the 0.5 McFarland Standard (OD625 from 0.08 to 0.1). Within 15 min of preparation, the adjusted inoculum suspension was diluted in MHBII media (BBL T M Mueller-Hinton Broth II, Becton, Dickinson and Company, N.J./USA) so that each well contained approximately 5×10^5 CFU/mL in a final volume of 100 μL. 95 μL of the inoculum were applied per well and 5 μL of the (diluted) antibiotic substance were added.
(§4) Previously the dry antibiotic compounds were dissolved in DMSO (100%) with a concentration of 2560 μg/mL and the resulting stock solutions were further diluted in DMSO (100%). 5 μL of each antibiotic dilution were applied to the microdilution tray to reach final concentrations of 64 μg/mL to 0.008 μg/mL. One row of each well plate was left as a growth control without antibiotic substances and another row of the microdilution tray was used as sterility control (only MHB II-media). The antimicrobial effect of the solvent (DMSO) was tested by adding 5 μL DMSO to several wells without antibiotics.
(§5) Purity check and cell titer control were performed according to International Standard M07-A9 on Mueller-Hinton II Agar (Mueller Hinton II Broth, 15 g/L agar-agar).
(§6) Both microdilution trays and agar plates were incubated at 37° C. for 20 h and subsequently analyzed visually.

Bacillus subtilis DSM10 = test: Microdilution assay, MIC; format: cell-based; details: read-out: MIC B. subtilis DSM10
Description: as §1, §2, §3, §4, §5, §6

[1] = test system: Micrococcus luteus DSM1790; test: Microdilution assay, MIC; format: cell-based; details: read-out: MIC M. luteus DSM1790
Description: as §1, §2, §3, §4, §5, §6

S. typhimurium TA100 = test: Microdilution assay, MIC; format: cell-based; details: Salmonella enterica, 20 h, read-out: MIC S. typhimurium TA100
Description: as §1, §2, §3, §4, §5, §6

[2] = test system: Staphylococcus aureus ATCC 29213; test: MHK against further strains (Table 2); format: cell-based; details: Nr. 8 Staphylococcus aureus ATCC 29213; KBE/ml 6.60E+05
Description: as §1, §2

[3] = test system: Pseudomonas aeruginosa ATCC 27853; test: MHK against further strains (Table 2); format: cell-based; details: Nr. 6 Pseudomonas aeruginosa ATCC 27853; KBE/ml 5.60E+05
Description: as §1, §2

[4] = test system: Escherichia coli ATCC 25922; test: MHK against further strains (Table 2); format: cell-based; details: Nr. 1 Escherichia coli ATCC 25922; KBE/ml 2.80E+05
Description: as §1, §2

[5] = test system: Staphylococcus aureus ATCC 29213; details: n.a. for the compounds; cited from earlier work
[6] = test system: Escherichia coli ATCC 25922; details: n.a. for the compounds; cited from earlier work
[7] = test system: Pseudomonas aeruginosa ATCC 27853; details: n.a. for the compounds; cited from earlier work

Row | SMILES | MIC (E. coli DSM 1116; DSM1116, 20 h) [µg/mL] | MIC (Bacillus subtilis DSM10; DSM10, 20 h) [µg/mL] | MIC ([1]; DSM1790, 20 h) [µg/mL] | MIC (S. typhimurium TA100) [µg/mL] | further results
1 | COc1c(NC(=O)c2ccc(NC(=O)c3ccc(NC(=O)[C@H](CC#N)NC(=O)c4ccc(NC(=O)/C(C)=C/c5ccc(O)cc5)cc4)cc3)c(OC)c2O)ccc(C(=O)O)c1O [Albicidin] | 63 (≈ 74.7 µM) | 250 (≈ 297 µM) | 1000 (≈ 1190 µM) | 63 (≈ 74.7 µM) | –
2 | O=C(O)c1cn(C2CC2)c2cc(N3CCNCC3)c(F)cc2c1=O [CIP, reference compound] | – | – | – | – | MHK [2]: 0.5 mg/L; MHK [3]: 0.5 mg/L; MHK [4]: 0.015 mg/L; MHK range (unlabelled line below the ATCC strain) [5]: 0.12 to 0.5 mg/L; MHK range (unlabelled line below the ATCC strain) [6]: 0.004 to 0.015 mg/L; MHK range (unlabelled line below the ATCC strain) [7]: 0.25 to 1 mg/L
3 | COc1c(NC(=O)c2ccc(NC(=O)c3ccc(NC(=O)C(CN4CCOCC4)NC(=O)c4ccc(NC(=O)/C(C)=C/c5ccc(O)cc5)cc4)cc3)c(OC)c2O)ccc(C(=O)O)c1O [Compound 4, L-Morpholino-Albicidin] | 500 (≈ 554 µM) | 250 (≈ 277 µM) | 8000 (≈ 8860 µM) | 63 (≈ 69.8 µM) | –
4 | COc1c(NC(=O)c2ccc(NC(=O)c3ccc(NC(=O)C(Cc4cn(C)cn4)NC(=O)c4ccc(NC(=O)/C(C)=C/c5ccc(O)cc5)cc4)cc3)c(OC)c2O)ccc(C(=O)O)c1O [Compound 5, L-Methyl-His-Albicidin] | 125 (≈ 139 µM) | 500 (≈ 557 µM) | 4000 (≈ 4450 µM) | 63 (≈ 70.2 µM) | –
5 | COc1c(NC(=O)c2ccc(NC(=O)c3ccc(NC(=O)C4(NC(=O)c5ccc(NC(=O)/C(C)=C/c6ccc(O)cc6)cc5)CCN(C)CC4)cc3)c(OC)c2O)ccc(C(=O)O)c1O [Compound 6, N-Methylpiperidino-Albicidin] | 2000 (≈ 2260 µM) | ≥ 8000 | ≥ 8000 | 2000 (≈ 2260 µM) | –
6 | COc1c(NC(=O)c2ccc(NC(=O)c3ccc(NC(=O)[C@H](Cc4ccccn4)NC(=O)c4ccc(NC(=O)/C(C)=C/c5ccc(O)cc5)cc4)cc3)c(OC)c2O)ccc(C(=O)O)c1O [Compound 7, L-2-Py-Albicidin] | 250 (≈ 279 µM) | 250 (≈ 279 µM) | 2000 (≈ 2230 µM) | 125 (≈ 140 µM) | –
7 | COc1c(NC(=O)c2ccc(NC(=O)c3ccc(NC(=O)[C@H](Cc4cccnc4)NC(=O)c4ccc(NC(=O)/C(C)=C/c5ccc(O)cc5)cc4)cc3)c(OC)c2O)ccc(C(=O)O)c1O [Compound 8] | 250 (≈ 279 µM) | 500 (≈ 559 µM) | 1000 (≈ 1120 µM) | – | –
8 | COc1c(NC(=O)c2ccc(NC(=O)c3ccc(NC(=O)[C@H](Cc4ccncc4)NC(=O)c4ccc(NC(=O)/C(C)=C/c5ccc(O)cc5)cc4)cc3)c(OC)c2O)ccc(C(=O)O)c1O [Compound 9] | 500 (≈ 559 µM) | 2000 (≈ 2230 µM) | 8000 (≈ 8940 µM) | 125 (≈ 140 µM) | –
9 | C#CCOc1ccc(/C=C(\C)C(=O)Nc2ccc(C(=O)NC(CC3(C)N=N3)C(=O)Nc3ccc(C(=O)Nc4ccc(C(=O)Nc5ccc(C(=O)O)c(O)c5OC)c(O)c4OC)cc3)cc2)cc1 (centres unmarked) [Compound 10] | 63 (≈ 69.2 µM) | 125 (≈ 137 µM) | 250 (≈ 275 µM) | ≤ 16 | –
10 | C#CCOc1ccc(C(=O)Nc2ccc(C(=O)NC(CC3(C)N=N3)C(=O)Nc3ccc(C(=O)Nc4ccc(C(=O)Nc5ccc(C(=O)O)c(O)c5OC)c(O)c4OC)cc3)cc2)cc1 (centres unmarked) [Compound 11] | 63 (≈ 72.4 µM) | 125 (≈ 144 µM) | 125 (≈ 144 µM) | 16 (≈ 18.4 µM) | –
11 | C/C(=C\c1ccc(O)cc1)C(=O)Nc1ccc(C(=O)N[C@@H](CC#N)C(=O)Nc2ccc(C(=O)Nc3ccc(C(=O)Nc4ccc(C(=O)O)c(O)c4)c(O)c3)cc2)cc1 [Compound 12, HMZS-pABA-L-Cya-pABA-HpABA-HpABA-OH] | 16000 (≈ 20400 µM) | – | 32000 (≈ 40900 µM) | 4000 (≈ 5110 µM) | –
12 | COc1c(NC(=O)c2ccc(NC(=O)c3ccc(NC(=O)[C@H](CC#N)NC(=O)c4ccc(NC(=O)/C(C)=C/c5ccc(O)cc5)cc4)c(O)c3)c(OC)c2O)ccc(C(=O)O)c1O [Compound 13] | 2000 (≈ 2330 µM) | 2000 (≈ 2330 µM) | – | 500 (≈ 582 µM) | –
13 | COc1c(NC(=O)c2ccc(NC(=O)c3ccc(NC(=O)[C@H](CC#N)NC(=O)c4ccc(NC(=O)/C(C)=C/c5ccc(O)cc5)cc4)cc3O)c(OC)c2O)ccc(C(=O)O)c1O [Compound 14] | 31 (≈ 36.1 µM) | 250 (≈ 291 µM) | – | 16 (≈ 18.6 µM) | –
14 | COc1c(NC(=O)c2ccc(NC(=O)c3ccc(NC(=O)[C@@H](Cc4c[nH]cn4)NC(=O)c4ccc(NC(=O)/C(C)=C/c5ccc(O)cc5)cc4)cc3)c(OC)c2O)ccc(C(=O)O)c1O [Compound 15, D-His-albicidin] | 125 (≈ 141 µM) | 1000 (≈ 1130 µM) | 8000 (≈ 9050 µM) | 125 (≈ 141 µM) | –
15 | COc1c(NC(=O)c2ccc(NC(=O)c3ccc(NC(=O)[C@H](Cc4c[nH]nn4)NC(=O)c4ccc(NC(=O)/C(C)=C/c5ccc(F)cc5)cc4)cc3)c(OC)c2O)ccc(C(=O)O)c1O [Compound 18] | 31 (≈ 35 µM) | 125 (≈ 141 µM) | 250 (≈ 282 µM) | ≤ 16 | –
16 | COc1c(NC(=O)c2ccc(NC(=O)c3ccc(NC(=O)[C@H](CN(C)C)NC(=O)c4ccc(NC(=O)c5ccc(O)cc5)cc4)cc3)c(OC)c2O)ccc(C(=O)O)c1O [Compound 19] | 2000 (≈ 2440 µM) | 4000 (≈ 4870 µM) | ≥ 8000 | 500 (≈ 609 µM) | –
17 | CCOc1c(NC(=O)c2ccc(NC(=O)c3ccc(NC(=O)[C@H](Cc4c[nH]nn4)NC(=O)c4ccc(NC(=O)/C(C)=C/c5ccc(O)cc5)cc4)cc3)c(OCC)c2O)ccc(C(=O)O)c1O [Compound 20] | 16 (≈ 17.5 µM) | 31 (≈ 34 µM) | 500 (≈ 548 µM) | 16 (≈ 17.5 µM) | –
18 | COc1c(NC(=O)c2ccc(NC(=O)c3ccc(N(C)C(=O)[C@H](Cc4c[nH]nn4)NC(=O)c4ccc(NC(=O)/C(C)=C/c5ccc(O)cc5)cc4)cc3)c(OC)c2O)ccc(C(=O)O)c1O [Compound 22] | ≥ 8000 | ≥ 8000 | ≥ 8000 | 2000 (≈ 2220 µM) | –
19 | COc1c(NC(=O)c2ccc(NC(=O)c3ccc(NC(=O)[C@H](Cc4c[nH]nn4)NC(=O)c4ccc(NC(=O)/C(C)=C/c5ccc(O)cc5)cc4)c(OC)c3O)c(OC)c2O)ccc(C(=O)O)c1O [Compound 23] | ≥ 8000 | ≥ 8000 | ≥ 8000 | 2000 (≈ 2150 µM) | –
20 | COc1c(NC(=O)c2ccc(NC(=O)c3ccc(NC(=O)[C@H](Cc4cnn[nH]4)NC(=O)c4ccc(NC(=O)/C(C)=C/c5ccc(O)cc5)cc4)c(O)c3)c(OC)c2O)ccc(C(=O)O)c1O [Compound 24] | 125 (≈ 139 µM) | 1000 (≈ 1110 µM) | 8000 (≈ 8880 µM) | 63 (≈ 69.9 µM) | –
21 | COc1c(NC(=O)c2ccc(NC(=O)c3ccc(NC(=O)[C@H](Cc4cnn[nH]4)NC(=O)c4ccc(NC(=O)/C(C)=C/c5ccc(O)cc5)cc4)cc3O)c(OC)c2O)ccc(C(=O)O)c1O [Compound 25] | 31 (≈ 34.4 µM) | 250 (≈ 278 µM) | 4000 (≈ 4440 µM) | 16 (≈ 17.8 µM) | –
22 | COc1ccc(C#Cc2ccc(C(=O)N[C@@H](Cc3c[nH]nn3)C(=O)Nc3ccc(C(=O)Nc4ccc(C(=O)Nc5ccc(C(=O)O)c(O)c5OC)c(O)c4OC)cc3)cc2)cc1 [Compound 26] | – | – | – | – | MIC (E. coli DSM 1116; DSM1116, gram negative, MHBII media, 37° C., 20 h): 63 µg/mL (≈ 75 µM); MIC (Bacillus subtilis DSM10; DSM10, gram positive, MHBII media, 37° C., 20 h): 250 µg/mL (≈ 298 µM); MIC ([1]; DSM1790, gram positive, MHBII media, 37° C., 20 h): 500 µg/mL (≈ 595 µM); MIC (S. typhimurium TA100; gram negative, MHBII media, 37° C.): ≤ 16 µg/mL
